Data reported in US8927717B1, “Thiochromeno[2,3-c]quinolin-12-one derivatives, preparation method and application thereof” (National Defense Medical Center, priority 2014, dated 2015).

What was measured:
Type in all cases: cell-based
SK-MEL-5 = conditions: SK-MEL-5; five dose
UACC-62 = system: UACC-62
OVCAR-5 = system: OVCAR-5
OVCAR-8 = system: OVCAR-8
NCI/ADR-RES = system: NCI/ADR-RES
SK-OV-3 = system: SK-OV-3
786-0 = system: 786-0
A498 = system: A498
RXF 393 = system: RXF 393
SN12C = system: SN12C
TK-10 = system: TK-10
UO-31 = system: UO-31
PC-3 = system: PC-3
DU-145 = system: DU-145
MCF7 = system: MCF7
MDA-MB-231/ATCC = system: MDA-MB-231/ATCC
BT-549 = system: BT-549
T-47D = conditions: Breast cancer; 10^−5 molar; 48 hours; SRB
MDA-MB-486 = system: MDA-MB-486
60 cancer cell lines = assay: NCI 60-cell screen, SRB, whole panel (mean, delta, range)
[1] = Ovarian cancer, 10^−5 molar, 48 hours, SRB
[2] = Renal cancer, 10^−5 molar, 48 hours, SRB
[3] = Prostate cancer, 10^−5 molar, 48 hours, SRB
[4] = Breast cancer, 10^−5 molar, 48 hours, SRB

## CCNc1nc2ccccc2c2c(=O)c3cc(Cl)ccc3sc12 [Compound N2, 10-Chloro-6-ethylamino-12H-thiochromeno[2,3-c]quinolin-12-one]
SK-MEL-5
  TGI: >100 µM
UACC-62; Homo sapiens, UACC-62, five dose
  GI50: 22.3 µM
UACC-62; Homo sapiens, UACC-62, five dose, read-out: LC50 (the source's name)
  CC50: > 100 µM
UACC-62; Melanoma, 10^−5 molar, 48 hours, SRB
  Growth percent UACC-62: 69.06%
UACC-62; UACC-62, five dose
  TGI: >100 µM
OVCAR-5; Homo sapiens, OVCAR-5, five dose
  GI50: > 100 µM
OVCAR-5; Homo sapiens, OVCAR-5, five dose, read-out: LC50 (the source's name)
  CC50: > 100 µM
OVCAR-5; OVCAR-5, five dose
  TGI: >100 µM
OVCAR-5; [1]
  Growth percent OVCAR-5: 92.93%
OVCAR-8; Homo sapiens, OVCAR-8, five dose
  GI50: 17.7 µM
OVCAR-8; Homo sapiens, OVCAR-8, five dose, read-out: LC50 (the source's name)
  CC50: > 100 µM
OVCAR-8; OVCAR-8, five dose
  TGI: >100 µM
OVCAR-8; [1]
  Growth percent OVCAR-8: 62.54%
NCI/ADR-RES; Homo sapiens, NCI/ADR-RES, five dose
  GI50: 33.5 µM
NCI/ADR-RES; Homo sapiens, NCI/ADR-RES, five dose, read-out: LC50 (the source's name)
  CC50: > 100 µM
NCI/ADR-RES; NCI/ADR-RES, five dose
  TGI: >100 µM
NCI/ADR-RES; [1]
  Growth percent NCI/ADR-RES: 88.61%
SK-OV-3; Homo sapiens, SK-OV-3, five dose
  GI50: 11.1 µM
SK-OV-3; Homo sapiens, SK-OV-3, five dose, read-out: LC50 (the source's name)
  CC50: > 100 µM
SK-OV-3; [1]
  Growth percent SK-OV-3: 28.90%
SK-OV-3; SK-OV-3, five dose
  TGI: 35.20 µM
786-0; 786-0, five dose
  TGI: 33.8 µM
786-0; Homo sapiens, 786-0, five dose
  GI50: 10.5 µM
786-0; Homo sapiens, 786-0, five dose, read-out: LC50 (the source's name)
  CC50: > 100 µM
786-0; [2]
  Growth percent 786-0: 23.87%
A498; A498, five dose
  TGI: 91.3 µM
A498; Homo sapiens, A498, five dose
  GI50: 15.3 µM
A498; Homo sapiens, A498, five dose, read-out: LC50 (the source's name)
  CC50: > 100 µM
A498; [2]
  Growth percent A498: 61.02%
RXF 393; Homo sapiens, RXF 393, five dose
  GI50: 13.1 µM
RXF 393; Homo sapiens, RXF 393, five dose, read-out: LC50 (the source's name)
  CC50: > 100 µM
RXF 393; RXF 393, five dose
  TGI: 44.6 µM
RXF 393; [2]
  Growth percent RXF 393: 34.56%
SN12C; Homo sapiens, SN12C, five dose
  GI50: 75.3 µM
SN12C; Homo sapiens, SN12C, five dose, read-out: LC50 (the source's name)
  CC50: > 100 µM
SN12C; [2]
  Growth percent SN12C: 84.57%
SN12C; SN12C, five dose
  TGI: >100 µM
TK-10; Homo sapiens, TK-10, five dose, read-out: LC50 (the source's name)
  CC50: > 100 µM
TK-10; [2]
  Growth percent TK-10: 47.11%
UO-31; Homo sapiens, UO-31, five dose
  GI50: 29.4 µM
UO-31; Homo sapiens, UO-31, five dose, read-out: LC50 (the source's name)
  CC50: > 100 µM
UO-31; [2]
  Growth percent UO-31: 32.06%
UO-31; UO-31, five dose
  TGI: >100 µM
PC-3; Homo sapiens, PC-3, five dose
  GI50: > 100 µM
PC-3; Homo sapiens, PC-3, five dose, read-out: LC50 (the source's name)
  CC50: > 100 µM
PC-3; PC-3, five dose
  TGI: >100 µM
PC-3; [3]
  Growth percent PC-3: 77.80%
DU-145; DU-145, five dose
  TGI: >100 µM
DU-145; Homo sapiens, DU-145, five dose
  GI50: > 100 µM
DU-145; Homo sapiens, DU-145, five dose, read-out: LC50 (the source's name)
  CC50: > 100 µM
DU-145; [3]
  Growth percent DU-145: 87.67%
MCF7; [4]
  Growth percent MCF7 (Table 2: MCF): 17.54%
MCF7; Homo sapiens, MCF7, five dose, read-out: LC50 (the source's name)
  CC50: > 100 µM
MCF7; MCF7, five dose
  TGI: >100 µM
MDA-MB-231/ATCC; [4]
  Growth percent MDA-MB-231/ATCC: 48.66%
MDA-MB-231/ATCC; Homo sapiens, MDA-MB-231/ATCC, five dose
  GI50: 10.1 µM
MDA-MB-231/ATCC; Homo sapiens, MDA-MB-231/ATCC, five dose, read-out: LC50 (the source's name)
  CC50: > 100 µM
MDA-MB-231/ATCC; MDA-MB-231/ATCC, five dose
  TGI: 65.5 µM
BT-549; BT-549, five dose
  TGI: >100 µM
BT-549; [4]
  Growth percent BT-549: 100.10%
BT-549; Homo sapiens, BT-549, five dose
  GI50: 9.87 µM
BT-549; Homo sapiens, BT-549, five dose, read-out: LC50 (the source's name)
  CC50: > 100 µM
T-47D
  Growth percent T-47D: 38.28%
MDA-MB-486; 60 cell, MDA-MB-486, five dose
  GI50: 0.04 µM
MDA-MB-486; 60 cell, MDA-MB-486, five dose, read-out: LC50 (the source's name)
  CC50: > 100 µM
MDA-MB-486; [4]
  Growth percent MDA-MB-486: 26.29%
MDA-MB-486; MDA-MB-486, five dose
  TGI: >100 µM
60 cancer cell lines; 60 cell, mean over panel, five dose
  GI50: 28.8 µM
60 cancer cell lines; 60 cell, mean over panel, five dose, read-out: LC50, Mean
  CC50: 100 µM
60 cancer cell lines; delta over the cell panel, 10^−5 molar, 48 hours, SRB
  Growth percent, Delta: 66.04%
60 cancer cell lines; mean over panel, five dose
  TGI, Mean: 83.18 µM
60 cancer cell lines; mean over the cell panel, 10^−5 molar, 48 hours, SRB
  Growth percent, Mean: 65.97%
60 cancer cell lines; range over the cell panel, 10^−5 molar, 48 hours, SRB
  Growth percent, Range: 103.40%
